Results on five molecules are retold here after ChEMBL document CHEMBL1649095, “A κ Opioid Pharmacophore Becomes a Spinally Selective κ-δ Agonist When Modified with a Basic Extender Arm” (2011).

Each structure is given as a SMILES string. Active and inactive are the calls of the source. The rule behind the calls is not given here.

Assay [1] has as its system Mus musculus. Briefly: Potency index, ratio of antinociceptive ED50 in icv dosed HSD:ICR(CD1) mouse to antinociceptive ED50 in intrathecally dosed HSD:ICR(CD1) mouse. It is filed as functional.
Assay [2] has as its system Mus musculus. Briefly: Antinociceptive activity in intrathecally dosed HSD:ICR(CD1) mouse by tail flick test. It is filed as functional. Background: In hot-plate and tail-flick tests a longer latency is read as antinociception.
The subject of assay [3] is Mus musculus. Briefly: Antinociceptive activity in icv dosed HSD:ICR(CD1) mouse by tail flick test. It is filed as functional.
Assay [4] concerns HEK293. Briefly: Selectivity for kappa/delta opioid receptor expressed in HEK293 cells over kappa opioid receptor expressed in HEK293 cells by intracellular calcium release assay. It is filed as cell-based. (Calcium flux is commonly read through the fluorescence of an indicator in the cells.)
The subject of assay [5] is HEK293. The assay can be described thus: Selectivity for kappa/delta opioid receptor expressed in HEK293 cells over mu opioid receptor expressed in HEK293 cells by intracellular calcium release assay. The assay is classed as cell-based.
Assay [6] has as its target Opioid receptors; delta & kappa (Homo sapiens) (UniProt P41145+P41143). The assay can be described thus: Agonist activity at kappa/delta opioid receptor expressed in HEK293 cells coexpressing chimeric Giiq protein assessed as stimulation of intracellular calcium. It is filed as functional, cell-based.
Assay [7] has as its system HEK293. Briefly: Selectivity for kappa/delta opioid receptor expressed in HEK293 cells over kappa/mu opioid receptor expressed in HEK293 cells by intracellular calcium release assay. It is filed as cell-based.
Assay [8] deals with HEK293. The assay can be described thus: Selectivity for kappa/delta opioid receptor expressed in HEK293 cells over mu/delta opioid receptor expressed in HEK293 cells by intracellular calcium release assay. It is filed as cell-based.
Assay [9] relates to Mus musculus. Briefly: Ratio of antinociceptive ED80 in intrathecally dosed HSD:ICR(CD1) mouse coadministered with 5 nmol delta opioid receptor antagonist NTI to ED80 in intrathecally dosed HSD:ICR(CD1) mouse. The assay is classed as functional.
The test system of assay [10] is Mus musculus. Briefly: Ratio of antinociceptive ED80 in intrathecally dosed HSD:ICR(CD1) mouse coadministered with 2.5 nmol kappa opioid receptor antagonist norBNI to ED80 in intrathecally dosed HSD:ICR(CD1) mouse. It is filed as functional.

Opioid receptors; delta & kappa (Homo sapiens), sequence (P41143 whole entry, looked up): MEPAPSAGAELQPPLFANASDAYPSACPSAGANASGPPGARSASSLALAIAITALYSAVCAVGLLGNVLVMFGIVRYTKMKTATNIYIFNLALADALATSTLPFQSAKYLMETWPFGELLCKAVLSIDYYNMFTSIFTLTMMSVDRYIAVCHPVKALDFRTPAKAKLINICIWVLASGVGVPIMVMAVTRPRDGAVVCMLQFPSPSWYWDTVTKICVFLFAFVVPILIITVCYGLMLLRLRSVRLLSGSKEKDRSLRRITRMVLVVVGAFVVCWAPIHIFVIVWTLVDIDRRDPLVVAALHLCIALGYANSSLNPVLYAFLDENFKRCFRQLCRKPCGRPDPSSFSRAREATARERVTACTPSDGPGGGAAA
Opioid receptors; delta & kappa (Homo sapiens), sequence (P41145 whole entry, looked up): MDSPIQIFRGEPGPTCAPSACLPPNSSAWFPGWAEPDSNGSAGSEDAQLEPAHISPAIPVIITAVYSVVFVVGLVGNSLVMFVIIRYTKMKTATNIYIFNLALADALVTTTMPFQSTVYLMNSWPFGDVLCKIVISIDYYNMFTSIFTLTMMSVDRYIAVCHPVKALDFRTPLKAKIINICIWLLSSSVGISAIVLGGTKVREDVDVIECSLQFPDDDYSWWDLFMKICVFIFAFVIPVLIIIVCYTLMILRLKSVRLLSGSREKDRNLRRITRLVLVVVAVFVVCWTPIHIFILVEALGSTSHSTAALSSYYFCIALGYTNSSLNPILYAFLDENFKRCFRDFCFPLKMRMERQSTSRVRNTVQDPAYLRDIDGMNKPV

On to `CNCCNC(=O)COCC(=O)NCC(=O)NCC(=O)NCC(=O)Nc1cccc([C@@H](CN2CCCC2)N(C)C(=O)Cc2ccc(Cl)c(Cl)c2)c1`, for which the “Ratio ED50” value in the assay with Mus musculus [1] was 11.43. The ED50 worked out at 0.035 nmol with Mus musculus [2] and 0.4 nmol in the assay with Mus musculus [3].
Consider `CNCCCCNC(=O)COCC(=O)NCC(=O)Nc1cccc([C@@H](CN2CCCC2)N(C)C(=O)Cc2ccc(Cl)c(Cl)c2)c1`, for which the “Ratio ED50” value in the assay with Mus musculus [1] was 2.81. Moreover, the ED50 with Mus musculus [2] is reported as 0.17 nmol; with Mus musculus [3], 0.48 nmol.
For the molecule `CNCCCNC(=O)COCC(=O)NCC(=O)NCC(=O)Nc1cccc([C@@H](CN2CCCC2)N(C)C(=O)Cc2ccc(Cl)c(Cl)c2)c1`, the Selectivity ratio with HEK293 [4], in the assay on HEK293 [5], in the assay on HEK293 [7] and in the assay with HEK293 [8] was 66 throughout. Further, the “Ratio ED50” value with Mus musculus [1] is 130.91. The result in assay [6] was Active. Also, the values for the ED50 in the assay with Mus musculus [2] and in the assay on Mus musculus [3] were 0.0045 nmol and 0.58 nmol, respectively. Further, the results for the Ratio with Mus musculus [9] and with Mus musculus [10] were 9.97 and 28.5, respectively.
With `CNCCCCNC(=O)COCC(=O)Nc1cccc([C@@H](CN2CCCC2)N(C)C(=O)Cc2ccc(Cl)c(Cl)c2)c1`, the “Ratio ED50” value with Mus musculus [1] is recorded as 3.45. Also, the figures for the ED50 in the assay on Mus musculus [2] and in the assay on Mus musculus [3] were 0.15 nmol and 0.52 nmol, respectively.
The corresponding values for `CN(C(=O)Cc1ccc(Cl)c(Cl)c1)[C@H](CN1CCCC1)c1cccc(NC(=O)CNC(=O)CNC(=O)COCC(=O)NCCCNC=O)c1` are 23.44, 0.02 nmol and 0.47 nmol.
